Laboratory results: PubChem BioAssay (NCI)
“And” between values parts separate entries of the source, which are not always exact repeats. Equal entries are not always repeated.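 Growth conditions: 96-well plates. Treatment: test compound, 48 hours, 5 concentrations. Analysis: linear interpolation between bracketing concentrations; unreached endpoints set to highest concentration. The concentration for 50% growth inhibition is given as GI50. TGI is the concentration that stops growth completely.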

How the values were obtained:
Assay in all cases: NCI tumour cell line growth inhibition, 48 h
[1] = test system: UACC-62 melanoma
[2] = test system: LOX IMVI melanoma
[3] = test system: SK-MEL-5 melanoma
[4] = test system: ACHN renal
[5] = test system: OVCAR-4 ovarian
[6] = test system: CAKI-1 renal
[7] = test system: SN12C renal
[8] = test system: SF-295 CNS
[9] = test system: RPMI-8226 leukemia
[10] = test system: NCI/ADR-RES ovarian

SMILES | TGI [1] | TGI [2] [µM] | TGI [3] | TGI [4] [µM] | TGI [5] [µM] | TGI [6] | TGI [7] [µM] | TGI [8] [µM] | TGI [9] | GI50 [1] [nM] | GI50 [5] [µM] | GI50 [10] [nM] | TGI [10] [µM] | GI50 [6] [nM] | GI50 [7] [nM] | GI50 [8] [nM] | GI50 [9] [nM] | GI50 [3] [nM]
C=CCOCCCC(=O)C(=[N+]=[N-])C(=O)OC | > 100 µM | > 100 | > 100 µM | > 100 | > 100 | > 100 µM | > 100 | > 100 | > 100 µM | – | – | – | – | – | – | – | – | –
O=C1CC(N2C(=O)/C(=C/C(Cl)=C\c3ccc([N+](=O)[O-])cc3)SC2=S)C(=O)N1c1ccc(Cl)cc1 (stereo not given) | 4.3 µM | – | – | – | > 100 | 3.28 µM | 11.1 | 3.24 | 0.979 µM | 1770 | 5.55 | 1010 | 6.19 | 1130 | 1690 | 1400 | 303 | –
COC1(OC)C[C@H](C)[C@@]23O[C@]24c2cc(O)c5c(c2N[C@H]3C#C/C=C\C#C[C@]14O)C(=O)c1ccccc1C5=O | 0.0359 µM and 0.0324 µM | 0.049 | 0.0222 µM and 0.00891 µM | – | 4.2 | 0.00561 µM and 0.00653 µM | 0.00979 | 0.0076 | 0.0604 µM and 0.0392 µM | 2.04 | – | 2.23 | – | < 1 | – | – | 1.5 | 1.72
O=c1c2c([nH]c3nccn13)CCCC2 | > 10 µM | > 10 | > 10 µM | > 10 | > 10 | > 10 µM | > 10 | > 10 | > 10 µM | – | – | – | > 10 | – | – | – | – | –
Cc1cc(C)n(C(=O)C(C)Sc2nnc(SC(C)C(=O)n3nc(C)cc3C)s2)n1 (stereo not given) | > 100 µM | > 100 | > 100 µM | > 100 | > 100 | > 100 µM | – | > 100 | > 100 µM | – | – | – | > 100 | – | – | – | – | –
C=C1C(C2(C)C=CC(=O)OC3(C)COC(=O)CC32)C(OC=O)C(OC(=O)C(O)C(C)CC)C2(C)C(c3ccoc3)CC(OC(C)=O)C12O (stereo not given) | > 100 µM | 88.2 | > 100 µM | > 100 | – | > 100 µM | > 100 | > 100 | > 100 µM | – | – | – | > 100 | – | – | – | – | –
COc1ccc(/C=c2/[nH]c(=O)/c(=C\c3ccc(OCc4ccccc4)cn3)[nH]c2=O)cc1 | > 100 µM | > 100 | > 100 µM | > 100 | > 100 | > 100 µM | > 100 | > 100 | – | – | – | – | > 100 | – | – | – | – | –
CN(C)CCNc1c([N+](=O)[O-])cc2c3c(cccc13)C(=O)N(CCN(C)C)C2=O | 3.35 µM | 4.01 | 4.32 µM | – | 5.84 | 6.6 µM | 9.28 | 6.69 | 11.6 µM | – | – | – | 9.32 | – | – | – | – | –
S=C(NCCCCCCNC(=S)Nc1c2ccccc2nc2ccccc12)Nc1c2ccccc2nc2ccccc12 | > 100 µM | > 100 | > 100 µM | – | > 100 | > 100 µM | > 100 | > 100 | > 100 µM | – | – | – | > 100 | – | – | – | – | –
Cc1c2c(cc3c1[nH]c1ccccc13)C(c1ccc(F)cc1)=NCC2 | 2.77 µM | 3.02 | 4.83 µM | – | 3.12 | 4.79 µM | 6.4 | 2.45 | 2.54 µM | – | – | – | 2.36 | – | – | – | – | –
O=C1CS(=O)(=O)C(c2cccc(Oc3ccccc3)c2)N1c1cccc(Cl)c1Cl (stereo not given) | 30.7 µM | 47.7 | 42.6 µM | 43.6 | 78.9 | > 100 µM | 44.6 | > 100 | – | – | – | – | – | – | – | – | – | –
OC(c1ccc(-c2ccccc2)cc1)(c1ccc(-c2ccccc2)cc1)c1ccc(-c2ccccc2)cc1 | > 100 µM | > 100 | > 100 µM | > 100 | > 100 | > 100 µM | > 100 | > 100 | > 100 µM | – | – | – | > 100 | – | – | – | – | –
CCn1cc(C(=O)O)c(=O)c2cc(F)c(N3CCN(Cn4c(O)c(N=NC(=O)c5ccncc5)c5cc(Cl)ccc54)CC3)cc21 | > 100 µM | > 100 | > 100 µM | > 100 | > 100 | 72.8 µM | > 100 | > 100 | – | – | – | – | > 100 | – | – | – | – | –
N#CCc1[nH]nc2nc(SCc3ccccc3)nc(N3CCCCC3)c12 | – | 43 | 32.8 µM | 41.5 | 36.4 | 34.6 µM | 28.7 | 35.3 | 43.2 µM | – | – | – | 32.3 | – | – | – | – | –
O=C1OC(c2ccccc2)=N/C1=C/c1cccs1 | – | – | – | > 100 | > 100 | – | – | > 100 | 44.9 µM | – | – | – | 83.7 | – | – | – | – | –
COc1nc(C#CCCCC#N)nc(OC)n1 | 22.8 µM | 14.2 | 28.2 µM | 21.8 | 17.9 | 27.2 µM | 36.5 | 84.6 | – | – | – | – | > 100 | – | – | – | – | –
OC1C=C2C3CN(Cc4cc5c(cc43)OCO5)[C@H]2C[C@@H]1O (stereo not given in full) | 68.4 µM | > 100 | 16.4 µM | 33.1 | 25.9 | 29.7 µM | > 100 | > 100 | > 100 µM | – | – | – | 75.6 | – | – | – | – | –
